Patent publication US4073786A, “2-Amino-4-hydroxy-6-hydroxymethyl-7,7-diethyl-7,8-dihydropteridine and the 7-spirocyclohexyl analogue thereof” (Burroughs Wellcome Co., priority 1975, dated 1978)

How the values were obtained:
[1] = system: Derm. dermatonomous; conditions: British Pat. No. 1303171 and Application No. 36289/70; cited from earlier work
[2] = system: Cl. perfringens; conditions: British Pat. No. 1303171 and Application No. 36289/70; cited from earlier work
[3] = system: Staphylococcus aureus; assay: Inhibitor zone test, pteridine in agar with TMP and/or SMX in the well; assay type: cell-based; conditions: conclusion from Table 3
Description: The pteridine was included in a soya peptone medium of low thymidine content (Wellcotest Sensitivity test agar) contained in a Petri dish and the other component(s) added to the well resulting from the removal of a small plug from the medium. The surface of the medium was inoculated with the test organism and then incubated. The amount of zone inhibition is shown in Table 3, wherein the numbers represent the complete zone inhibition (i.e. the number of […] from the edge of the well after about 6 × magnification) and the figures in parenthesis include the zones of partial inhibition.

[4] = target: hydroxymethyldihydropteridine pyrophosphokinase (HMPPS) (Escherichia coli, UniProt P26281); assay: Inhibition of the enzymes forming dihydropteroic acid (HMPPS ATP-γ-P32 transfer assay; synthetase pAB-C14 assay); assay type: biochemical; conditions: E. coli extract enzymes; result of tests (a) HMPPS and (b) synthetase
Chain of hydroxymethyldihydropteridine pyrophosphokinase (HMPPS) (P26281 whole entry): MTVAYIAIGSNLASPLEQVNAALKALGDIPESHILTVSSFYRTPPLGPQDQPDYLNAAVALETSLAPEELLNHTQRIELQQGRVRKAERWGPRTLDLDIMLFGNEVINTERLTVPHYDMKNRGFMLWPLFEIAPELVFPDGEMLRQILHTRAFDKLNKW
Description: The inhibiting activity against HMPPS of a selected compound of formula (I) can, for instance, be tested by monitoring the transfer of the terminal phosphate of adenosinetriphosphate/ATP-γ-P^32 to `dihydropteridine`. […] Such inhibition may, for instance, be easily and simply carried out by incubating an extract of E. coli with pAB-7-C^14, ATP, Mg and `dihydropteridine`. The formation of the dihydropteroate-C^14 can be quantitatively assayed after separating the unreacted pAB substrate, for instance by chromatography. […] Preferably the value is 25μM or less, such as in the range between 2 to 12μM. Generally a value below 7μM is desirable. […]
(a) An assay for HMPPS was developed in which the transfer of the terminal phosphate of ATP-γ-P^32 to Pt could be monitored and correlated with the amount of inhibition of HMPPS by the compound under test. […]
Tubes 1 to 9 containing the amounts of components shown in the Table, were filled up to 200μl with distilled water, incubated for 60 minutes at 37° C and then chilled on ice. […] The charcoal and the filter were then radioactively counted. […]
(b) The activity of the test compound of formula (I) against `synthetase` was determined as follows, by monitoring the formation of dihydropteroate C^14. […]

CC1(C)Nc2nc(N)nc(O)c2N=C1CO [2-amino-4-hydroxy-6-hydroxymethyl-7,7-dimethyl-7,8-dihydropteridine]
bacteriostatic activity [1]: particularly effective
bacteriostatic activity [2]: particularly effective

CC1=Nc2c(nc(N)[nH]c2=O)NC1(C)C [2-amino-4-hyroxy-6-methyl-7,7-dimethyl-7,8-dihydropteridine]
bacteriostatic activity [1]: particularly effective
bacteriostatic activity [2]: particularly effective

CCC1(CC)Nc2nc(N)nc(O)c2N=C1CO [R=CH2 OH R^1 =R^2 =Et, 2-amino-4-hydroxy-6-hydroxymethyl-7,7-diethyl-7,8-dihydropteridine]
synergistic activity with TMP and/or SMX [3]: synergism with TMP and SMX alone and multiple synergism with both
IC50 [4]: 2100 nM
